# Experimental data published in patent publication US20240058390A1, “WNT+ ADIPOCYTES, EXOSOMES FROM WNT+ ADIPOCYTES, AND METHODS OF MAKING AND USING THEM” (The Administrators of the Tulane Educational Fund, priority 2020, published 2024).
# Entries after “also recorded” stand apart in the source; their conditions may differ.
# B1: DKK1: canonical Wnt receptor antagonist (R&D Systems 5897-DK-010) (protein, UniProt O94907 32-266, looked up)
# Dickkopf-related protein 1: TLNSVLNSNAIKNLPPPLGGAAGHPGSAVSAAPGILYPGGNKYQTIDNYQPYPCAEDEECGTDEYCASPTRGGDAGVQICLACRKRRKRCMRHAMCCPGNYCKNGICVSSDQNHFRGEIEETITESFGNDHSTLDGYSRRTTLSSKMYHTKGQEGSVCLRSSDCASGLCCARHFWSKICKPVLKEGQVCTKHRRKGSHGLEIFQRCYCGEGLSCRIQKDHHQASNSSRLHTCQRH
# Assays:
# [1] = test system: Wnt^+ adipocytes in iWAT and iBAT; assay: mTOR antagonist treatment of T/L-GFP mice, quantification of Wnt+ adipocytes; format: in vivo, mouse; conditions: T/L-GFP adult mice, 600 μg/kg i.p. daily for 5 days, vs vehicle
# Method: (§1) For cold-exposure experiments, mice were singly caged and exposed to cold temperature at 6° C. for 2, 4, or 14 consecutive days. For β3-adrenoceptor agonist treatment, adult male mice were injected intraperitoneally with CL316,243 (CAS No. 138908-40-4, product C5976, Sigma-Aldrich Inc., St. Louis, MO) at 1 mg/kg body weight daily for 4 consecutive days prior to sample collection. Age-matched male littermates were treated intraperitoneally with saline as vehicle controls. […]
# (§2) Adipose tissue was fixed in 4% PFA at 4° C. overnight, followed by dehydration through serial ethanol. […] After washing, sections were processed with a Vector TrueVIEW™ Autofluorescence Quenching Kit treatment (Vector Laboratories, Inc, Burlingame, CA, SP-8400) for 5 min to remove unspecific fluorescence on sections due to red blood cells and structural elements such as collagen and elastin. […] Images of tissue samples were captured using a Nikon confocal Microscope A1 HD25 (Nikon Instruments Inc., Melville, NY) and analyzed using ImageJ software (Version 1.51S). For quantification of Wnt^+ adipocytes, we randomly chose 12-18 images from each tissue of one mouse. Microscopic pictures (10× objective) were taken, and the total cell number and the number of GFP^+ adipocytes within each image were counted.
# Wnt^+ adipocytes in iWAT = assay: β3-adrenoceptor agonist treatment of T/L-GFP mice, beiging in iWAT; format: in vivo, mouse; conditions: 1 mg/kg i.p. daily for 4 days
# Method: as §1, §2
# [2] = test system: Wnt^+ adipocytes in iWAT of T/L-DTA mice; assay: Tamoxifen-induced ablation of Wnt+ adipocytes in T/L-DTA mice; format: in vivo, mouse; conditions: 150 mg/kg i.p., 2 days
# Method: To ablate Wnt^+ adipocytes in vivo, Fabp4-Flex-DTA mice were crossed with Tcf/Lef-CreERT2 mice to generate Tcf/Lef-CreERT2;Fabp4-Flex-DTA mice (“T/L-DTA” mice), which received 2-day tamoxifen administration via intraperitoneal injection at the dose of 150 mg/kg body weight. […] Forty-eight hours later, T/L-DTA mice and tamoxifen-treated littermate controls (Fabp4-Flex-DTA mice) were housed at 6° C. for 2 days, respectively.
# Wnt/β-catenin signaling = Wnt/β-catenin signaling activity (TCF/Lef:H2B-GFP reporter) in SVF precursors under pro-adipogenic conditions; format: cell-based, mouse; conditions: DKK1 100 ng/ml, IWP-2 5 μM, LF3 10 and 20 μM
# Method: (§3) Immortalized cell lines, isolated adipose SVF cells, MEFs, and BMSCs were seeded into plates at the density of 4×10^3 cells/cm^2 (cell line and SVF) or 1.5×10^4 cells/cm2 (BMSCs) in MesenCult™ Expansion medium (Stemcell Technologies Inc., Cambridge, MA, catalog no. 05513), and treated with MesenCult™ Adipogenic Differentiation cocktail (Stemcell, catalog no. 05507) with 90% cell confluence. Cells were cultured for various days after pro-adipogenic induction prior to being harvested for following experiments. Adipogenesis was examined by lipid staining. Briefly, differentiated adipocytes were washed twice with PBS, fixed in 4% paraformaldehyde (PFA) for 15 min, and then stained with Oil Red O solution (Sigma-Aldrich, catalog no. 01391) for 20 min at ambient temperature or with 20 nM BODIPY (dipyrrometheneboron difluoride, catalog no. D3835, Thermo Fisher Scientific) in PBS for 15 min at 37° C. Subsequently, cells were washed with PBS before imaging.
# (§4) For inhibition studies, SVF cells or precursor cell lines, 3 days after pro-adipogenic induction, were treated with each of the following molecules for 4 days: DKK1 (product 5897-DK-010, R&D Systems, Minneapolis, MN) (100 ng/ml), IWP-2 (catalog no. 72122, Stemcell), (5 μM), LF3 (catalog no. 58474, Selleck Chemicals) (10 and 20 μM, or 50 μM on cell lines), and LY294002 (catalog no. S1105, Selleck Chemicals) (2 and 14 μM), along with vehicles (PBS or DMSO).
# [3] = test system: Wnt^− adipocytes induced from GFPneg precursor cell lines; assay: Treatment of induced Wnt− adipocytes from GFPneg precursor cell lines (viability, maturation); format: cell-based, mouse
# Excerpt: (§5) SVFs of iBAT from adult TCF/Lef:H2B-GFP male mice were separated and collected as described above. Cells at passage 1 were transduced with pUltra-hot-LT LV particles. Two days after transduction, cells were purified by performing FACS to remove mCherry- and Lin+ cells Immortalized cells were subjected to clonal selection through serial limited dilutions. The expression of GFP in cell colonies under pro-adipogenic induction was used as a readout for the accurate establishment of Wnt+ (>95%) and Wnt− (Wnt+=0%) adipocyte cell lines, respectively.
# as §3, §4
# [4] = test system: uninduced Wnt^+ and Wnt^− precursor cell lines; assay: Treatment of uninduced Wnt+ and Wnt− precursor cell lines; format: cell-based, mouse; conditions: same dose of LF3
# Excerpt: as §5
# […] S1105, Selleck Chemicals) (2 and 14 μM), along with vehicles (PBS or DMSO).
# iBAT-derived SVF cells = assay: Adipogenic maturation of SVF-derived adipocytes (Oil Red O staining); format: cell-based, mouse; conditions: LF3, dose-dependent
# Method: as §3, with “imaging. […]” for “imaging.”
# [5] = test system: Wnt^+ adipocytes induced from GFPpos-1 and GFPpos-2 cell lines; assay: Treatment of induced Wnt+ adipocytes from GFPpos-1 and GFPpos-2 cell lines (GFP signal, cell death); format: cell-based, mouse
# Excerpt: as §5, §3, §4
molecule,measurement,setting,value
"CO[C@H]1C[C@@H]2CC[C@@H](C)[C@@](O)(O2)C(=O)C(=O)N2CCCC[C@H]2C(=O)O[C@H]([C@H](C)C[C@@H]2CC[C@@H](OC(=O)C(C)(CO)CO)[C@H](OC)C2)CC(=O)[C@H](C)/C=C(\C)[C@@H](O)[C@@H](OC)C(=O)[C@H](C)C[C@H](C)/C=C/C=C/C=C/1C [temsirolimus, Temsirolimus]",Wnt+ adipocyte numbers in iBAT,[1],dramatically reduced Wnt^+ adipocyte numbers
same,Wnt+ adipocyte numbers in iWAT,[1],dramatically reduced Wnt^+ adipocyte numbers
"C[C@H](Cc1ccc2c(c1)OC(C(=O)[O-])(C(=O)[O-])O2)NC[C@H](O)c1cccc(Cl)c1.[Na+].[Na+] [CL316,243]",proportion of Wnt+ adipocytes in iWAT,Wnt^+ adipocytes in iWAT,unaltered
CC/C(=C(\c1ccccc1)c1ccc(OCCN(C)C)cc1)c1ccccc1 [tamoxifen],ablation of Wnt+ adipocytes in iWAT,[2],about 87%
"Cc1ccc2nc(NC(=O)CSc3nc4c(c(=O)n3-c3ccccc3)SCC4)sc2c1 [1WP-2, IWP-2]",inhibition of Wnt/β-catenin signaling activity,Wnt/β-catenin signaling,failed to
LF3,cell viability of induced Wnt− adipocytes,[3]; LF3,did not affect cell viability
same,maturation of Wnt− adipocytes,[3]; LF3,slowed down the maturation
same,adipogenic capacity of LF3-treated Wnt− adipocytes after return to normal pro-adipogenic medium,"[3]; LF3, rescue experiment",resumed full adipogenic capacity
same,impact on uninduced precursor cell lines,[4],showed no impacts
same,adipogenic maturation of SVF-derived adipocytes,iBAT-derived SVF cells,impaired/delayed adipogenic maturation
same,inhibition of Wnt/β-catenin signaling activity,Wnt/β-catenin signaling,did inhibit
same,GFP expression in induced Wnt+ adipocytes,"[5]; 50 μM LF3, first day",quenched GFP expression; also recorded: GFP signals are significantly quenched
same,cell number of induced Wnt+ adipocytes,"[5]; 50 μM LF3, one day",obviously reduced cell numbers
same,cell death of induced Wnt+ adipocytes,"[5]; 50 μM LF3, second day",massive cell death; also recorded: Remarkable cell death
B1,inhibition of Wnt/β-catenin signaling activity,Wnt/β-catenin signaling,failed to
